Source: ChEMBL document CHEMBL1201862, “PubChem BioAssay data set” (2004)
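Five compound concentrations were applied to cells in 96-well plates for 48 hours; endpoints were derived by simple linear interpolation of the resulting dose-response curve. Abbreviation: GI50, concentration required for 50% inhibition of growth.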 The source made the active and inactive calls. Rule as the data show it: active = GI50 up to about 1.1 µM and inactive = higher.

Key:
Test in all cases: NCI anticancer screen, dose series, 48 h
[1] = test system: SK-MEL-2
[2] = test system: ACHN
[3] = test system: M14
[4] = test system: PC-3
[5] = test system: TK-10
[6] = test system: MDA-MB-435
[7] = test system: NCI-H522
[8] = test system: NCI-H460
[9] = test system: NCI-H226
[10] = test system: UACC-257
[11] = test system: SR
[12] = test system: SN12C
[13] = test system: HT-29
[14] = test system: A498
[15] = test system: T47D
[16] = test system: OVCAR-8
[17] = test system: EKVX
[18] = test system: MOLT-4
[19] = test system: COLO 205
[20] = test system: CCRF-CEM

Compound | GI50 [1] | GI50 [2] | GI50 [3] | GI50 [4] | GI50 [5] | GI50 [6] | GI50 [7] | GI50 [8] | GI50 [9] | GI50 [10] | GI50 [11] | GI50 [12] | GI50 [13] | GI50 [14] | GI50 [15] | GI50 [16] | GI50 [17] | GI50 [18] | GI50 [19] | GI50 [20]
NCCC1CN(C(=O)OCc2ccccc2)c2ccccc21 (stereo unspecified) | 18 µM (inactive) | 22.6 µM (inactive) | 13.8 µM (inactive) | 3.86 µM (inactive) | 22.6 µM (inactive) | 14.8 µM (inactive) | 14.5 µM (inactive) | 17.7 µM (inactive) | 12 µM (inactive) | 17.3 µM (inactive) | 2.9 µM (inactive) | 13.2 µM (inactive) | 12.5 µM (inactive) | > 37.2 µM (inactive) | 3.13 µM (inactive) | 8.17 µM (inactive) | 20.2 µM (inactive) | 12 µM (inactive) | 16.3 µM (inactive) | 
Cc1ccc([N+](=O)[O-])cc1S(=O)(=O)Nc1ccc(C2=NOC(c3ccccc3)C2)cc1 (stereo unspecified) | 3.65 µM (inactive) | 13.5 µM (inactive) | 4.11 µM (inactive) | 7.19 µM (inactive) |  | 1.5 µM (inactive) | 3.27 µM (inactive) | 5.52 µM (inactive) | 24.9 µM (inactive) | 14.7 µM (inactive) | 1.31 µM (inactive) | 12.9 µM (inactive) | 6.78 µM (inactive) | 4.03 µM (inactive) | 5.77 µM (inactive) | 18.3 µM (inactive) | 17.7 µM (inactive) | 2.61 µM (inactive) | 6.7 µM (inactive) | 9.48 µM (inactive)
CCOC(=O)c1c(SC(=O)c2cc(OC)c(OC)c(OC)c2)n(-c2ccccc2)c(=S)n(-c2ccccc2)c1=O |  | > 100 µM (inactive) | > 100 µM (inactive) | > 100 µM (inactive) | > 100 µM (inactive) | > 100 µM (inactive) | > 100 µM (inactive) | > 100 µM (inactive) | > 100 µM (inactive) | > 100 µM (inactive) | > 100 µM (inactive) | > 100 µM (inactive) | > 100 µM (inactive) | > 100 µM (inactive) | > 100 µM (inactive) | > 100 µM (inactive) | > 100 µM (inactive) | > 100 µM (inactive) | > 100 µM (inactive) | > 100 µM (inactive)
CCOP(=O)(OCC)/C(=C\n1ccc(=O)[nH]c1=S)C(=O)OC | > 100 µM (inactive) | > 100 µM (inactive) | > 100 µM (inactive) | > 100 µM (inactive) |  | > 100 µM (inactive) | > 100 µM (inactive) | > 100 µM (inactive) | > 100 µM (inactive) | > 100 µM (inactive) | > 100 µM (inactive) | > 100 µM (inactive) | > 100 µM (inactive) | > 100 µM (inactive) | > 100 µM (inactive) | > 100 µM (inactive) | > 100 µM (inactive) | > 100 µM (inactive) | > 100 µM (inactive) | > 100 µM (inactive)
COc1ccc2c(c1)C1OCCNC1CC2 (stereo unspecified) | > 100 µM (inactive) | > 100 µM (inactive) | > 100 µM (inactive) | > 100 µM (inactive) | > 100 µM (inactive) | > 100 µM (inactive) | > 100 µM (inactive) |  | > 100 µM (inactive) | > 100 µM (inactive) | > 100 µM (inactive) | > 100 µM (inactive) | > 100 µM (inactive) | 40.6 µM (inactive) | > 100 µM (inactive) | > 100 µM (inactive) | > 100 µM (inactive) | > 100 µM (inactive) | > 100 µM (inactive) | > 100 µM (inactive)
Cc1ccc(C2=Nn3c(nc4sc(C)c(C)c4c3=O)SC2)cc1 |  | > 100 µM (inactive) |  | > 100 µM (inactive) | 23.3 µM (inactive) | > 100 µM (inactive) | > 100 µM (inactive) | > 100 µM (inactive) | > 100 µM (inactive) | > 100 µM (inactive) | > 100 µM (inactive) | > 100 µM (inactive) | > 100 µM (inactive) | > 100 µM (inactive) | > 100 µM (inactive) | > 100 µM (inactive) | > 100 µM (inactive) | > 100 µM (inactive) | > 100 µM (inactive) | > 10 µM (inactive)
OCC(O)C(O)C(C=NNc1ncnc2ccc(Br)cc12)=NNc1ncnc2ccc(Br)cc12 (stereo unspecified) | 2.3 µM (inactive) | 0.729 µM (active) | 1.62 µM (inactive) | 4.35 µM (inactive) | 8.45 µM (inactive) | 3.38 µM (inactive) | 0.383 µM (active) |  | 1.67 µM (inactive) | 3.1 µM (inactive) | 0.492 µM (active) | 2.39 µM (inactive) | 0.556 µM (active) | 4.23 µM (inactive) | 0.373 µM (active) | 0.533 µM (active) | 0.406 µM (active) | 0.258 µM (active) | 0.255 µM (active) | 
N#Cc1ccc(Oc2nc3ccc(C(F)(F)F)cc3nc2-c2ccccc2)cc1 | 19.5 µM (inactive) | 15.1 µM (inactive) | 16.1 µM (inactive) | 14 µM (inactive) | 19.5 µM (inactive) | 17.7 µM (inactive) | 15.6 µM (inactive) | 17.6 µM (inactive) |  | 21.8 µM (inactive) | 2.77 µM (inactive) | 20.6 µM (inactive) | 16.7 µM (inactive) | 15.7 µM (inactive) | 16.7 µM (inactive) | 14.9 µM (inactive) | 14.3 µM (inactive) | 20 µM (inactive) | 21.5 µM (inactive) | 20.4 µM (inactive)
CC(=O)O[C@H]1CC[C@@]2(C)C(=CC[C@@H]3[C@@H]2CC[C@]2(C)c4c(C)n[nH]c4C[C@@H]32)C1 |  | 17.9 µM (inactive) | 16 µM (inactive) | 17.3 µM (inactive) | 19.2 µM (inactive) | 16 µM (inactive) | 6.92 µM (inactive) | 15.6 µM (inactive) | 16.5 µM (inactive) | 16.7 µM (inactive) | 22.3 µM (inactive) | 19.4 µM (inactive) | 10.3 µM (inactive) | 20.3 µM (inactive) | 9.53 µM (inactive) | 31 µM (inactive) | 17.9 µM (inactive) | 11.7 µM (inactive) | 14.7 µM (inactive) | 4.97 µM (inactive)
COc1cc(NP(=O)(Oc2ccccc2)Oc2ccccc2)ccc1Nc1c2ccccc2nc2c1[nH]c1ccccc12 | 7.24 µM (inactive) | 0.221 µM (active) | 0.891 µM (active) | 4.41 µM (inactive) | 3.01 µM (inactive) | 3.11 µM (inactive) | 1.6 µM (inactive) | 0.0226 µM (active) |  | 7.71 µM (inactive) | < 0.0158 µM (active) | 0.327 µM (active) | 0.953 µM (active) | 0.269 µM (active) | 0.867 µM (active) | 1.23 µM (inactive) | 9.71 µM (inactive) | 0.0147 µM (active) | 2.81 µM (inactive) | 0.183 µM (active)
CC(C)/C=N\n1c(N)c(C#N)c(C#N)c1C(C)C | 18.2 µM (inactive) | 20.3 µM (inactive) | 22.2 µM (inactive) | 17.1 µM (inactive) | 22.5 µM (inactive) | 31.3 µM (inactive) | 19.3 µM (inactive) |  | 14.7 µM (inactive) | 14.7 µM (inactive) | 0.951 µM (active) | 28.6 µM (inactive) | 33.3 µM (inactive) | 17.5 µM (inactive) | 16.5 µM (inactive) | 20.3 µM (inactive) | 20.4 µM (inactive) | 13.5 µM (inactive) | 18.7 µM (inactive) | 19.9 µM (inactive)
O=C(Nc1cccc([N+](=O)[O-])c1)c1nnn(-c2cccc([N+](=O)[O-])c2)c1O | > 100 µM (inactive) | > 100 µM (inactive) | > 100 µM (inactive) | > 100 µM (inactive) |  | > 100 µM (inactive) | > 100 µM (inactive) |  | > 100 µM (inactive) | > 100 µM (inactive) | > 100 µM (inactive) | > 100 µM (inactive) | > 100 µM (inactive) | > 100 µM (inactive) | > 100 µM (inactive) | > 100 µM (inactive) | > 100 µM (inactive) | > 100 µM (inactive) | > 100 µM (inactive) | > 100 µM (inactive)
COC1/C=C/O[C@@]2(C)Oc3c(C)c(O)c4c(O)c(cc(O)c4c3C2=O)NC(=O)/C(C)=C\C=C\[C@H](C)C(O)[C@@H](C)[C@@H](O)[C@@H](C)[C@H](OC(C)=O)[C@@H]1C (stereo partly specified) | 13.8 µM (inactive) | 19.4 µM (inactive) | 16.1 µM (inactive) | 16 µM (inactive) | 20.1 µM (inactive) | 19.9 µM (inactive) | 5.3 µM (inactive) |  |  | 13 µM (inactive) | 6.15 µM (inactive) | 14.1 µM (inactive) | 14.9 µM (inactive) | 38.2 µM (inactive) | 17.7 µM (inactive) | 18.7 µM (inactive) |  | 6.31 µM (inactive) | 2.65 µM (inactive) | 2.06 µM (inactive)
CCCCCC(=O)N[C@@H](c1ccccc1)C(O)C(=O)OC1C[C@@]2(O)C(OC(=O)c3ccccc3)C3[C@](C)(C(=O)[C@H](O)C(=C1C)C2(C)C)C(OC1OCC(O)C(O)C1O)C[C@H]1OC[C@@]31OC(C)=O (stereo partly specified) |  | > 89.1 µM (inactive) | 2.32 µM (inactive) | 1.29 µM (inactive) | 63.2 µM (inactive) | 0.202 µM (active) | 0.245 µM (active) | 0.757 µM (active) | > 100 µM (inactive) | > 100 µM (inactive) | 2.41 µM (inactive) | 3.54 µM (inactive) | 1.19 µM (inactive) | 25.5 µM (inactive) | 1.76 µM (inactive) | 6.35 µM (inactive) | > 64.7 µM (inactive) | 2.45 µM (inactive) | 0.665 µM (active) | 1.57 µM (inactive)
